This is an account of results in patent US9862712B2, “Benzimidazole based EGFR inhibitors” (COUNCIL OF SCIENTIFIC & INDUSTRIAL RESEARCH, priority 2014, dated 2018).

For assay [1], the system named is A549 Cell line (Lung Cancer Cell line). The assay is described as follows: MTT cell proliferation assay, A549 Cell line. Type of assay: cell-based, human. The note with it: Homo sapiens, 72 h, MTT; for viability at 0.01 µM: A549, 0.01 μM; for viability at 0.1 µM: A549, 0.1 μM; for viability at 2.5 µM: A549, 2.5 μM; for viability at 5 µM: A549, 5 μM; for viability at 10 µM: A549, 10 μM. Here is the method:
(§1) 1. Protocol Followed for Anti Cancer Activity and Results, Cell Proliferation Assays: Cell lines used herein were purchased from NCCS (National Center for Cell Sciences) Pune, India. Invitro Activity was performed in NCL (National Chemical Laboratory) Pune. Each cell line was plated in 96-well microtiter plates (10,000 cells per well), and serial dilutions of indicated compounds were added. At the end of the incubation period (72 h at 37° C.), cell viability was determined by a tetrazolium dye, MTT (3-(4,5-dimethylthiazol-2-yl)-2,5-diphenyl tetrazolium bromide) (Promega, USA). The formazan crystals were dissolved in DMSO, and the absorbance at 600 nm was recorded using an ELISA plate reader. IC50 values were calculated using nonlinear regression and defined as the concentration needed for a 50% reduction in absorbance of treated versus untreated control cells.
By using the above procedure, the compounds of the invention were tested on A549 Cell line and the results obtained are presented below in table 4, Refer FIG. 1.
On the technique in general: Tetrazolium dyes change colour on reduction, which living cells bring about.

In the next assay the test system is MCF-7 Cell line. Put plainly: MTT cell proliferation assay, MCF-7 Cell line. Type of assay: cell-based. The note with it: Homo sapiens, MCF7, 72 h, MTT; for viability at 0.01 µM: MCF-7, 0.01 μM; for viability at 0.1 µM: MCF-7, 0.1 μM; for viability at 2.5 µM: MCF-7, 2.5 μM; for viability at 5 µM: MCF-7, 5 μM; for viability at 10 µM: MCF-7, 10 μM. Here is the method:
as §1
Table 4 indicates anticancer activity against A549 Cell line. The Gefitinib was used as standard and % cell Viable was measured compared to control. The procedure used was MTT assay as mentioned. […] By using the above procedure, the compounds of the invention were tested on MCF-7 Cell line and the results obtained are presented below in table 5, Refer FIG. 2.

For another assay, the system named is HOP-62 Cell line. The assay is described as follows: MTT cell proliferation assay, HOP-62 Cell line. Particulars: Homo sapiens, 72 h, MTT; for viability at 0.01 µM: HOP-62, 0.01 μM; for viability at 0.1 µM: HOP-62, 0.1 μM; for viability at 2.5 µM: HOP-62, 2.5 μM; for viability at 5 µM: HOP-62, 5 μM; for viability at 10 µM: HOP-62, 10 μM. It is filed as cell-based. Here is the method: as §1
By using the above procedure, the compounds of the invention were tested on HOP-62 Cell line and the results obtained are presented below in table 6, Refer FIG. 3.

For another assay, the system named is MDA-MB-436 Cell line. The assay is described as follows: MTT cell proliferation assay, MDA-MB-436 Cell line. It is filed as cell-based. The note with it: Homo sapiens, 72 h, MTT; for viability at 0.01 µM: MDA-MB-436, 0.01 μM; for viability at 0.1 µM: MDA-MB-436, 0.1 μM; for viability at 2.5 µM: MDA-MB-436, 2.5 μM; for viability at 5 µM: MDA-MB-436, 5 μM; for viability at 10 µM: MDA-MB-436, 10 μM. Here is the method: as §1
By using the above procedure, the compounds of the invention were tested on MDA-MB-436 Cell line and the results obtained are presented below in table 7, Refer FIG. 4.

Assay [2] deals with U87MG Cell line (Glioblastoma cell line). Put plainly: MTT cell proliferation assay, U87MG Cell line. Type of assay: cell-based. Particulars: Homo sapiens, U-87 MG, U87MG, 72 h, MTT. On the procedure: as §1
By using the above procedure, the compounds of the invention were tested on U87MG Cell line (glioblastoma cell line) and the results obtained are presented below in table 8, Refer FIG. 5.

A word on the viability: it is a read-out of living cells in per cent, often relative to untreated cells. For the compound `Cc1ccc2[nH]c(-c3sc(Nc4ccc(Cl)cc4)nc3N)nc2c1` [Molecule S4-M12, N^2-(4-chlorophenyl)-5-(5-methyl-1H-benzo[d]imidazol-2-yl)thiazole-2,4-diamine], in assay [1], the viability at 0.01 µM stood at 93.1%, the viability at 0.1 µM is 81.4%, the viability at 2.5 µM is 69.9% and the viability at 5 µM worked out at 58.9%. Besides, the viability at 10 µM in assay [1] amounted to 49.9%. Also, in the assay on MCF-7 Cell line, the viability at 0.01 µM came to 99.1%, the viability at 0.1 µM was determined as 91.4%, the viability at 2.5 µM was determined as 85.9% and the viability at 5 µM came to 74.9%. Besides, the viability at 10 µM in the assay with MCF-7 Cell line was found to be 70.8%. In the assay with HOP-62 Cell line, the viability at 0.01 µM amounted to 102%, the viability at 0.1 µM turned out to be 95.4%, the viability at 2.5 µM is 92.9% and the viability at 5 µM turned out to be 85.9%. Moreover, in the assay with HOP-62 Cell line, the viability at 10 µM was found to be 79.9%. In the assay with MDA-MB-436 Cell line, the viability at 0.01 µM turned out to be 94.1%, the viability at 0.1 µM amounted to 89.4%, the viability at 2.5 µM was 79.9% and the viability at 5 µM was determined as 65.9%. In addition, in the assay with MDA-MB-436 Cell line, the viability at 10 µM is 51.8%. Moreover, in assay [2], the viability at 0.01 µM worked out at 92.1%, the viability at 0.1 µM was 81.4%, the viability at 2.5 µM came out at 73.9% and the viability at 5 µM is 61.9%. In assay [2], the viability at 10 µM worked out at 49.8%.
For `COc1cc2ncnc(Nc3ccc(F)c(Cl)c3)c2cc1OCCCN1CCOCC1` [Gefitinib, reference compound], in the assay on MCF-7 Cell line, the viability at 0.01 µM was determined as 55.2%, the viability at 0.1 µM turned out to be 43.7%, the viability at 2.5 µM was found to be 35.3% and the viability at 5 µM turned out to be 29.3%. Further, in the assay on MCF-7 Cell line, the viability at 10 µM stood at 20.3%. In addition, in the assay with HOP-62 Cell line, the viability at 0.01 µM came out at 55.2%, the viability at 0.1 µM was found to be 43.7%, the viability at 2.5 µM is 35.3% and the viability at 5 µM came out at 29.3%. Also, the viability at 10 µM with HOP-62 Cell line came out at 20.3%. Further, in the assay with MDA-MB-436 Cell line, the viability at 0.01 µM worked out at 55.2%, the viability at 0.1 µM stood at 43.7%, the viability at 2.5 µM amounted to 35.3% and the viability at 5 µM stood at 29.3%. In addition, the viability at 10 µM in the assay with MDA-MB-436 Cell line came out at 20.3%.
With `Cc1ccc(Nc2nc(N)c(-c3nc4ccccc4[nH]3)s2)cc1` [Molecule S4-M9, 5-(1H-benzo[d]imidazol-2-yl)-N2-p-tolylthiazole-2,4-diamine], the viability at 0.01 µM in assay [1] came to 89%; in the assay on MCF-7 Cell line, 100%; in the assay with HOP-62 Cell line, 123%; in the assay on MDA-MB-436 Cell line it was 91%; in assay [2], 99.4%. For the same compound, the viability at 0.1 µM is 79.8% in assay [1]; 98.8% with MCF-7 Cell line; 101% with HOP-62 Cell line; 85.8% in the assay with MDA-MB-436 Cell line; 99.9% in assay [2]. The viability at 2.5 µM was found to be 68.3% in assay [1]; 96.3% with MCF-7 Cell line; 100% in the assay on HOP-62 Cell line; 79.3% with MDA-MB-436 Cell line; 99.4% in assay [2]. Besides, the viability at 5 µM in assay [1] worked out at 57.3%; in the assay with MCF-7 Cell line, 96.3%; in the assay with HOP-62 Cell line it was 98.3%; in the assay on MDA-MB-436 Cell line, 69.3%; in assay [2] it was 98.6%. Further, the viability at 10 µM in assay [1] came to 48.3%; with MCF-7 Cell line, 96.6%; with HOP-62 Cell line, 90.8%; in the assay on MDA-MB-436 Cell line, 54.6%; in assay [2], 96.9%.
`COc1ccc(Nc2nc(N)c(-c3nc4cc(C)ccc4[nH]3)s2)cc1` [Molecule S4-M11, N^2-(4-methoxyphenyl)-5-(5-methyl-1H-benzo[d]imidazol-2-yl)thiazole-2,4-diamine]: the viability at 0.01 µM in assay [1] was 94.8%; with MCF-7 Cell line, 157%; with HOP-62 Cell line, 157%; in the assay on MDA-MB-436 Cell line, 96.8%; in assay [2], 86.8%. For the same compound, the viability at 0.1 µM in assay [1] was found to be 80.7%; with MCF-7 Cell line, 133%; in the assay on HOP-62 Cell line it was 101%; with MDA-MB-436 Cell line, 92.7%; in assay [2] it was 71.7%. Besides, the viability at 2.5 µM was 72.8% in assay [1]; 110% in the assay with MCF-7 Cell line; 98.2% in the assay with HOP-62 Cell line; 84.2% with MDA-MB-436 Cell line; 60.2% in assay [2]. For the same compound, the viability at 5 µM in assay [1] turned out to be 63.8%; with MCF-7 Cell line it was 101%; with HOP-62 Cell line it was 96.8%; in the assay with MDA-MB-436 Cell line, 73.8%; in assay [2] it was 49.8%. Also, the viability at 10 µM in assay [1] was 51.8%; with MCF-7 Cell line, 101%; in the assay with HOP-62 Cell line it was 91.8%; in the assay with MDA-MB-436 Cell line it was 61.8%; in assay [2], 38.8%.
On to `Cc1ccc2[nH]c(-c3sc(Nc4ccccc4)nc3N)nc2c1` [Molecule S4-M10, 5-(5-methyl-1H-benzo[d]imidazol-2-yl)-N2-phenylthiazole-2,4-diamine], for which the viability at 0.01 µM came out at 90.9% in assay [1]; 141% in the assay on MCF-7 Cell line; 104% in the assay with HOP-62 Cell line; 92.9% with MDA-MB-436 Cell line; 88.9% in assay [2]. Further, the viability at 0.1 µM in assay [1] came out at 81%; in the assay on MCF-7 Cell line it was 120%; with HOP-62 Cell line it was 100%; in the assay on MDA-MB-436 Cell line, 84%; in assay [2], 75%. For the same compound, the viability at 2.5 µM in assay [1] stood at 70.4%; in the assay on MCF-7 Cell line it was 104%; in the assay on HOP-62 Cell line it was 99.4%; with MDA-MB-436 Cell line, 76.4%; in assay [2] it was 68.4%. In addition, the viability at 5 µM came out at 61.4% in assay [1]; 100% with MCF-7 Cell line; 95.4% with HOP-62 Cell line; 61.4% in the assay with MDA-MB-436 Cell line; 55.4% in assay [2]. Also, the viability at 10 µM in assay [1] is 49.4%; in the assay with MCF-7 Cell line, 100%; in the assay on HOP-62 Cell line, 89.4%; in the assay on MDA-MB-436 Cell line, 49.4%; in assay [2] it was 41.4%.
For the compound `COc1ccc(Nc2nc(N)c(-c3nc4c(C)cccc4[nH]3)s2)cc1` [Molecule S4-M15, N^2-(4-methoxyphenyl)-5-(4-methyl-1H-benzo[d]imidazol-2-yl)thiazole-2,4-diamine], the viability at 0.01 µM worked out at 93.1% in assay [1]; 92.1% in the assay on MCF-7 Cell line; 104% in the assay with HOP-62 Cell line; 96.1% in the assay with MDA-MB-436 Cell line; 89.1% in assay [2]. Besides, the viability at 0.1 µM stood at 79.7% in assay [1]; 89.9% in the assay with MCF-7 Cell line; 98.7% in the assay with HOP-62 Cell line; 94.9% with MDA-MB-436 Cell line; 82.9% in assay [2]. For the same compound, the viability at 2.5 µM turned out to be 68.3% in assay [1]; 75.7% in the assay on MCF-7 Cell line; 92.7% with HOP-62 Cell line; 90.7% in the assay with MDA-MB-436 Cell line; 71.7% in assay [2]. The viability at 5 µM in assay [1] was 59.3%; in the assay with MCF-7 Cell line, 70.7%; in the assay with HOP-62 Cell line, 81.7%; in the assay on MDA-MB-436 Cell line, 81.7%; in assay [2] it was 59.7%. For the same compound, the viability at 10 µM was found to be 49.3% in assay [1]; 61.3% in the assay on MCF-7 Cell line; 77.3% with HOP-62 Cell line; 71.3% in the assay with MDA-MB-436 Cell line; 48.3% in assay [2].
